Values joined by “and” are separate entries in the source; they are usually repeats but may differ in a detail not shown here. Equal values may be shown once.
Experiments:
Type in all cases: functional, organism-based
Details in all cases: Mus musculus
[1] = system: L1210; experiment: Compound was tested for antitumor activity against L1210 Leukemia in mice at 25 mg/kg dose upon intraperitoneal administration; parameters: dose 25 mg/kg
[2] = system: L1210; experiment: Compound was tested for antitumor activity against L1210 Leukemia in mice at 6.25 mg/kg dose upon intraperitoneal administration; parameters: dose 6.25 mg/kg
[3] = system: L1210; experiment: Compound was tested for antitumor activity against L1210 Leukemia in mice at 100 mg/kg dose upon intraperitoneal administration; parameters: dose 100 mg/kg
[4] = system: L1210; experiment: Compound was tested for antitumor activity against L1210 Leukemia in mice at 12.5 mg/kg dose upon intraperitoneal administration; parameters: dose 12.5 mg/kg
[5] = system: L1210; experiment: Compound was tested for antitumor activity against L1210 Leukemia in mice at 50 mg/kg dose upon intraperitoneal administration: Toxic; parameters: dose 50 mg/kg
[6] = system: L1210; experiment: Compound was tested for antitumor activity against L1210 Leukemia in mice at 25 mg/kg dose upon intraperitoneal administration: Toxic; parameters: dose 25 mg/kg
[7] = system: L1210; experiment: Compound was tested for antitumor activity against L1210 Leukemia in mice at 50 mg/kg dose upon intraperitoneal administration; parameters: dose 50 mg/kg
[8] = system: L1210; experiment: Compound was tested for antitumor activity against L1210 Leukemia in mice at 1.5 mg/kg dose upon intraperitoneal administration; parameters: dose 1.5 mg/kg
[9] = system: L1210; experiment: Compound was tested for antitumor activity against L1210 Leukemia in mice at 3.1 mg/kg dose upon intraperitoneal administration; parameters: dose 3.1 mg/kg
[10] = system: L1210; experiment: Compound was tested for antitumor activity against L1210 Leukemia in mice at 12.5 mg/kg dose upon intraperitoneal administration: Toxic; parameters: dose 12.5 mg/kg

Row | Substance | T/C [1] [%] | T/C [2] | T/C [3] [%] | T/C [4] | Activity [5] | Activity [6] | T/C [7] [%] | T/C [8] [%] | T/C [9] [%] | Activity [10]
1 | (2R,3R)-2,3-dihydroxy-1,4-diaminobutane Platinum (II) complex | 148 | 125% and 135% | 195 | 118% and 131% | Toxic | Toxic |  |  |  | 
2 | CARBOPLATIN | 148 | 107% | 197 | 125% |  |  | 196 |  |  | 
3 | CISPLATIN |  | 82% |  |  |  | Toxic |  | 142 | 167 | Toxic

Reference: ChEMBL document CHEMBL1128995, “Synthesis and antitumor activity of (2R,3R)-2,3-dihydroxy- and -2,3-dialkoxy-1,4-diaminobutane platinum(II) complexes” (Bioorg Med Chem Lett, 1996)
